# Tested on: cTnT^R141W transgenic dilated cardiomyopathy mice model
# Assay: M-mode echocardiography, cardiac function and morphous, once a month
# Type: in vivo
# Design: CO (Cardiac Output) / LVAW; d (left ventricular anterior wall thickness, end of diastole) / LV Mass (AW) (weight of the left ventricular) / Diameter; d (inner diameter of the left ventricular, end of diastole) / Volume; d (volume of the left ventricular, end of diastole) / SV (Stroke Volume): unit not given here
# Conditions: 75 mg/kg in drinking water
# Experimental: The positive mice at 1.5 months old are distributed by weight and cardiac function uniformly into the model group and the ginsenoside Rb1 administration group according to the echocardiography result, and each group comprises twelve mice. Ginsenoside Rb1, 75 mg/kg (State Yao zhun Zi, Yun Nan Tean Na Pharmaceutical Co., Ltd) is put into animal drinking water, and continuously administered for seven months.
# Echocardiography detection is performed once a month. Mice were anesthetized with tribromoethanol, scanned by small animal ultrasonic apparatus (Vevo 770 small animal ultrasonic detection system, Canada), with 30 MHz probe, M-mode echocardiography were analyzed: Body weight (BW), LVPW, d (the thickness of the left ventricular posterior wall at the end of the diastole), LVPW, s (the thickness of the left ventricular posterior wall at the end of the systole), LVAW, d (the thickness of the left ventricular anterior wall at the end of the diastole), LVAW, s (the thickness of the left ventricular anterior wall at the end of the systole), LV Mass (the weight of the left ventricular), Diameter, s (the inner diameter of the left ventricular at the end of the systole), Diameter, d (the inner diameter of the left ventricular at the end of the diastole), Volume, s (the volume of the left ventricular at the end of the systole), Volume, d (the volume of the left ventricular at the end of the diastole), SV (Stroke Volume), EF (Ejection Fraction), FS (Fractional Shortening) and CO (Cardiac Output).
structure (smiles),measurement,setting,value
"CC(C)=CCC[C@](C)(O[C@@H]1O[C@H](CO[C@@H]2O[C@H](CO)[C@@H](O)[C@H](O)[C@H]2O)[C@@H](O)[C@H](O)[C@H]1O)[C@H]1CC[C@]2(C)[C@@H]1[C@H](O)C[C@@H]1[C@@]3(C)CC[C@H](O[C@@H]4O[C@H](CO)[C@@H](O)[C@H](O)[C@H]4O[C@@H]4O[C@H](CO)[C@@H](O)[C@H](O)[C@H]4O)C(C)(C)[C@@H]3CC[C@]12C [Rb1, ginsenoside Rb1]",CO (Cardiac Output),0 month of administration,19.59 ± 2.99
same,"Diameter; d (inner diameter of the left ventricular, end of diastole)",0 month of administration,4.02 ± 0.32
same,"Diameter; s (inner diameter of the left ventricular, end of systole)",0 month of administration,2.84 ± 0.41
same,EF (Ejection Fraction),0 month of administration,57.05 ± 7.87
same,FS (Fractional Shortening),0 month of administration,29.77 ± 5.07
same,LV Mass (AW) (weight of the left ventricular),0 month of administration,92.06 ± 17.12
same,"LVAW; d (left ventricular anterior wall thickness, end of diastole)",0 month of administration,0.67 ± 0.06
same,"LVAW; s (left ventricular anterior wall thickness, end of systole)",0 month of administration,0.99 ± 0.12
same,"LVPW; d (left ventricular posterior wall thickness, end of diastole)",0 month of administration,0.67 ± 0.07
same,"LVPW; s (left ventricular posterior wall thickness, end of systole)",0 month of administration,0.85 ± 0.06
same,SV (Stroke Volume),0 month of administration,40.00 ± 4.42
same,"Volume; d (volume of the left ventricular, end of diastole)",0 month of administration,71.50 ± 13.77
same,"Volume; s (volume of the left ventricular, end of systole)",0 month of administration,31.51 ± 11.53
same,CO (Cardiac Output),1 month of administration,22.14 ± 2.64
same,"Diameter; d (inner diameter of the left ventricular, end of diastole)",1 month of administration,4.33 ± 0.38
same,"Diameter; s (inner diameter of the left ventricular, end of systole)",1 month of administration,3.01 ± 0.46
same,EF (Ejection Fraction),1 month of administration,58.32 ± 7.31
same,FS (Fractional Shortening),1 month of administration,30.78 ± 4.73
same,LV Mass (AW) (weight of the left ventricular),1 month of administration,120.38 ± 13.83
same,"LVAW; d (left ventricular anterior wall thickness, end of diastole)",1 month of administration,0.84 ± 0.12
same,"LVAW; s (left ventricular anterior wall thickness, end of systole)",1 month of administration,1.21 ± 0.13
same,"LVPW; d (left ventricular posterior wall thickness, end of diastole)",1 month of administration,0.67 ± 0.06
same,"LVPW; s (left ventricular posterior wall thickness, end of systole)",1 month of administration,0.95 ± 0.11
same,SV (Stroke Volume),1 month of administration,48.69 ± 5.08
same,"Volume; d (volume of the left ventricular, end of diastole)",1 month of administration,85.37 ± 17.55
same,"Volume; s (volume of the left ventricular, end of systole)",1 month of administration,36.68 ± 13.77
same,CO (Cardiac Output),2 month of administration,21.89 ± 1.78
same,"Diameter; d (inner diameter of the left ventricular, end of diastole)",2 month of administration,4.31 ± 0.27
same,"Diameter; s (inner diameter of the left ventricular, end of systole)",2 month of administration,3.15 ± 0.39
same,EF (Ejection Fraction),2 month of administration,52.93 ± 7.59
same,FS (Fractional Shortening),2 month of administration,27.23 ± 5.02
same,LV Mass (AW) (weight of the left ventricular),2 month of administration,111.52 ± 7.92
same,"LVAW; d (left ventricular anterior wall thickness, end of diastole)",2 month of administration,0.78 ± 0.05
same,"LVAW; s (left ventricular anterior wall thickness, end of systole)",2 month of administration,1.13 ± 0.14
same,"LVPW; d (left ventricular posterior wall thickness, end of diastole)",2 month of administration,0.69 ± 0.08
same,"LVPW; s (left ventricular posterior wall thickness, end of systole)",2 month of administration,0.88 ± 0.12
same,SV (Stroke Volume),2 month of administration,43.68 ± 2.20
same,"Volume; d (volume of the left ventricular, end of diastole)",2 month of administration,83.96 ± 12.12
same,"Volume; s (volume of the left ventricular, end of systole)",2 month of administration,40.29 ± 11.15
same,CO (Cardiac Output),3 month of administration,22.72 ± 3.18
same,"Diameter; d (inner diameter of the left ventricular, end of diastole)",3 month of administration,4.61 ± 0.35
same,"Diameter; s (inner diameter of the left ventricular, end of systole)",3 month of administration,3.47 ± 0.48
same,EF (Ejection Fraction),3 month of administration,48.85 ± 9.39
same,FS (Fractional Shortening),3 month of administration,24.88 ± 5.88
same,LV Mass (AW) (weight of the left ventricular),3 month of administration,124.88 ± 20.30
same,"LVAW; d (left ventricular anterior wall thickness, end of diastole)",3 month of administration,0.75 ± 0.08
same,"LVAW; s (left ventricular anterior wall thickness, end of systole)",3 month of administration,0.98 ± 0.09
same,"LVPW; d (left ventricular posterior wall thickness, end of diastole)",3 month of administration,0.71 ± 0.06
same,"LVPW; s (left ventricular posterior wall thickness, end of systole)",3 month of administration,0.88 ± 0.11
same,SV (Stroke Volume),3 month of administration,46.95 ± 6.12
same,"Volume; d (volume of the left ventricular, end of diastole)",3 month of administration,98.37 ± 16.57
same,"Volume; s (volume of the left ventricular, end of systole)",3 month of administration,51.42 ± 15.53
same,CO (Cardiac Output),4 month of administration,24.42 ± 1.52
same,"Diameter; d (inner diameter of the left ventricular, end of diastole)",4 month of administration,4.56 ± 0.26

# Source: patent publication US20110039793A1, “Application of ginsenoside Rb1 in preparing medicaments for treating dilated cardiomyopathy” (priority 2008, published 2011)
